Test results reported in patent publication US10722520B2, “Heterocyclic compounds and their use in preventing or treating bacterial infections” (MUTABILIS, priority 2016, dated 2020).

Tests used:
E. coli RGN238 [1] = experiment: microbe, parasite or virus in culture; type: cell-based; settings: Escherichia coli, RGN238, read-out: MIC compounds of the invention alone
Method: Log phase bacterial suspensions were adjusted to a final density of 5×10^5 cfu/mL in cation-adjusted Mueller-Hinton broth (Becton-Dickinson) and added to each well (98 μL). Microplates were incubated for 16-20 h at 35° C. in ambient air. The MIC of the compounds was defined as the lowest concentration of said compounds that prevented bacterial growth as read by visual inspection.

E. cloacae 260508 = experiment: MIC of ceftazidime (CAZ) at fixed concentration of compound (synergy), broth microdilution; type: cell-based; settings: MIC of ceftazidime with compound fixed at 4 μg/mL; strain 260508 (E. cloacae)
In short: (§1)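 Visual end point: lowest concentration that blocked growth. Conditions: cation-adjusted Mueller-Hinton broth, 5×10^5 cfu/mL final inoculum of log-phase bacteria, 16-20 h, 35° C, ambient atmosphere.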

E. cloacae P99 = experiment: as above; type: cell-based; settings: MIC of ceftazidime with compound fixed at 4 μg/mL; strain P99 (E. cloacae)
In short: as §1

E. cloacae UFR51 = experiment: as above; type: cell-based; settings: MIC of ceftazidime with compound fixed at 4 μg/mL; strain UFR51 (E. cloacae)
In short: as §1

E. cloacae UFR70 = experiment: as above; type: cell-based; settings: MIC of ceftazidime with compound fixed at 4 μg/mL; strain UFR70 (E. cloacae)
In short: as §1

E. cloacae UFR85 = experiment: as above; type: cell-based; settings: MIC of ceftazidime with compound fixed at 4 μg/mL; strain UFR85 (E. cloacae)
In short: as §1

E. coli 131119 = experiment: as above; type: cell-based; settings: MIC of ceftazidime with compound fixed at 4 μg/mL; strain 131119 (E. coli)
In short: as §1

E. coli 190317 = experiment: as above; type: cell-based; settings: MIC of ceftazidime with compound fixed at 4 μg/mL; strain 190317 (E. coli)
In short: as §1

E. coli RGN238 [2] = experiment: as above; type: cell-based; settings: MIC of ceftazidime with compound fixed at 4 μg/mL; strain RGN238 (E. coli)
In short: as §1

E. coli UFR18 = experiment: as above; type: cell-based; settings: MIC of ceftazidime with compound fixed at 4 μg/mL; strain UFR18 (E. coli)
In short: as §1

E. coli UFR32 = experiment: as above; type: cell-based; settings: MIC of ceftazidime with compound fixed at 4 μg/mL; strain UFR32 (E. coli)
In short: as §1

E. coli UFR39 = experiment: as above; type: cell-based; settings: MIC of ceftazidime with compound fixed at 4 μg/mL; strain UFR39 (E. coli)
In short: as §1

E. coli UFR41 = experiment: as above; type: cell-based; settings: MIC of ceftazidime with compound fixed at 4 μg/mL; strain UFR41 (E. coli)
In short: as §1

E. coli UFR61O = experiment: as above; type: cell-based; settings: MIC of ceftazidime with compound fixed at 4 μg/mL; strain UFR61O (E. coli)
In short: as §1

E. coli UFR74 = experiment: as above; type: cell-based; settings: MIC of ceftazidime with compound fixed at 4 μg/mL; strain UFR74 (E. coli)
In short: as §1

K. oxytoca UFR21 = experiment: as above; type: cell-based; settings: MIC of ceftazidime with compound fixed at 4 μg/mL; strain UFR21 (K. oxytoca)
In short: as §1

K. pneumoniae 160143 = experiment: as above; type: cell-based; settings: MIC of ceftazidime with compound fixed at 4 μg/mL; strain 160143 (K. pneumoniae)
In short: as §1

K. pneumoniae 200047 = experiment: as above; type: cell-based; settings: MIC of ceftazidime with compound fixed at 4 μg/mL; strain 200047 (K. pneumoniae)
In short: as §1

K. pneumoniae 6299 = experiment: as above; type: cell-based; settings: MIC of ceftazidime with compound fixed at 4 μg/mL; strain 6299 (K. pneumoniae)
In short: as §1

K. pneumoniae BAA-1898 = experiment: as above; type: cell-based; settings: MIC of ceftazidime with compound fixed at 4 μg/mL; strain BAA-1898 (K. pneumoniae)
In short: as §1

K. pneumoniae UFR24 = experiment: as above; type: cell-based; settings: MIC of ceftazidime with compound fixed at 4 μg/mL; strain UFR24 (K. pneumoniae)
In short: as §1

K. pneumoniae UFR68 = experiment: as above; type: cell-based; settings: MIC of ceftazidime with compound fixed at 4 μg/mL; strain UFR68 (K. pneumoniae)
In short: as §1

P. aeruginosa CIP107051 = experiment: as above; type: cell-based; settings: MIC of ceftazidime with compound fixed at 4 μg/mL; strain CIP107051 (P. aeruginosa)
In short: as §1

SHV-1 = SHV-1 (Klebsiella pneumoniae, UniProt P0AD64)
CTX-M-15 = CTX-M-15 (Escherichia coli, UniProt Q9EXV5)
OXA-1 = OXA-1 (Escherichia coli, UniProt P13661)
OXA-11 = OXA-11 (Pseudomonas aeruginosa, UniProt Q06778)
OXA-48 = OXA-48 (Klebsiella pneumoniae, UniProt Q6XEC0)

SMILES	MIC (E. coli RGN238 [1]) [µg/mL]	MIC combination of CAZ and compounds of the invention at 4 μg/mL (E. cloacae 260508)	MIC combination of CAZ and compounds of the invention at 4 μg/mL (E. cloacae P99)	MIC combination of CAZ and compounds of the invention at 4 μg/mL (E. cloacae UFR51)	MIC combination of CAZ and compounds of the invention at 4 μg/mL (E. cloacae UFR70)	MIC combination of CAZ and compounds of the invention at 4 μg/mL (E. cloacae UFR85)	MIC combination of CAZ and compounds of the invention at 4 μg/mL (E. coli 131119)	MIC combination of CAZ and compounds of the invention at 4 μg/mL (E. coli 190317)	MIC combination of CAZ and compounds of the invention at 4 μg/mL (E. coli RGN238 [2])	MIC combination of CAZ and compounds of the invention at 4 μg/mL (E. coli UFR18)	MIC combination of CAZ and compounds of the invention at 4 μg/mL (E. coli UFR32)	MIC combination of CAZ and compounds of the invention at 4 μg/mL (E. coli UFR39)	MIC combination of CAZ and compounds of the invention at 4 μg/mL (E. coli UFR41)	MIC combination of CAZ and compounds of the invention at 4 μg/mL (E. coli UFR61O)	MIC combination of CAZ and compounds of the invention at 4 μg/mL (E. coli UFR74)	MIC combination of CAZ and compounds of the invention at 4 μg/mL (K. oxytoca UFR21)	MIC combination of CAZ and compounds of the invention at 4 μg/mL (K. pneumoniae 160143)	MIC combination of CAZ and compounds of the invention at 4 μg/mL (K. pneumoniae 200047)	MIC combination of CAZ and compounds of the invention at 4 μg/mL (K. pneumoniae 6299)	MIC combination of CAZ and compounds of the invention at 4 μg/mL (K. pneumoniae BAA-1898)	other results
O=C1N2CC(n3ccnn3)=C[C@H](C2)N1OS(=O)(=O)O [Example 6, sodium [(5R)-7-oxo-3-(triazol-1-yl)-1,6-diazabicyclo[3.2.1]oct-3-en-6-yl]sulfate]	1	<0.25	<0.25	<0.25	<0.25	<0.25	<0.25	<0.25	<0.25	<0.25	<0.25	<0.25	<0.25	<0.25	<0.25	<0.25	<0.25	<0.25	<0.25	<0.25	MIC combination of CAZ and compounds of the invention at 4 μg/mL (K. pneumoniae UFR24): <0.25; MIC combination of CAZ and compounds of the invention at 4 μg/mL (K. pneumoniae UFR68): <0.25; MIC combination of CAZ and compounds of the invention at 4 μg/mL (P. aeruginosa CIP107051): 4; IC50 (SHV-1): 1.9 nM; IC50 (CTX-M-15): 0.58 nM; IC50 (OXA-1): 31 nM; IC50 (OXA-11): 21 nM; IC50 (OXA-48): 0.38 nM
O=C1N2CC(n3nccn3)=CC(C2)N1OS(=O)(=O)O (centres unmarked) [Example 3, sodium [7-oxo-3-(triazol-2-yl)-1,6-diazabicyclo[3.2.1]oct-3-en-6-yl]sulfate]	2	<0.25	≤0.25	<0.25	<0.25	<0.25	<0.25	<0.25	<0.25	<0.25	<0.25	>128	>128	≤0.25	<0.25	0.5	<0.25	<0.25	<0.25	0.5	MIC combination of CAZ and compounds of the invention at 4 μg/mL (K. pneumoniae UFR24): ≤0.25; MIC combination of CAZ and compounds of the invention at 4 μg/mL (K. pneumoniae UFR68): 0.5; MIC combination of CAZ and compounds of the invention at 4 μg/mL (P. aeruginosa CIP107051): 4; IC50 (SHV-1): 9.7 nM; IC50 (CTX-M-15): 2.1 nM; IC50 (OXA-1): 200 nM; IC50 (OXA-11): 85 nM; IC50 (OXA-48): 1.6 nM
